Results on two compounds are retold here after ChEMBL document CHEMBL3399997 (Bioorg Med Chem Lett, 2015).

Common to all, as to format: physicochemical
The nature of series [1]: Antioxidant activity assessed as alkoxyl radical scavenging activity by measuring relative rate constant (kAOx/kST ratio) using DMPO spin trap by ESR spin-trapping method.
A short description of series [2]: Antioxidant activity assessed as singlet oxygen radical scavenging activity by measuring relative rate constant (kAOx/kST ratio) using 4-HO-TEMP spin trap by ESR spin-trapping method.
The nature of series [3]: Antioxidant activity assessed as superoxide anion radical scavenging activity by measuring relative rate constant (kAOx/kST ratio) using CYPMPO spin trap by ESR spin-trapping method.
The nature of series [4]: Antioxidant activity assessed as peroxyl radical scavenging activity by measuring relative rate constant (kAOx/kST ratio) using CYPMPO spin trap by ESR spin-trapping method.
A short description of series [5]: Antioxidant activity assessed as rate constant for singlet oxygen radical scavenging activity using 4-HO-TEMP spin trap by ESR spin-trapping method.
Series [6] can be described thus: Antioxidant activity assessed as rate constant for hydroxyl radical scavenging activity using DMPO spin trap by ESR spin-trapping method.
Series [7] can be described thus: Antioxidant activity assessed as methyl radical scavenging activity by measuring relative rate constant (kAOx/kST ratio) using DMPO spin trap by ESR spin-trapping method.
Series [8] is described as follows: Antioxidant activity assessed as rate constant for superoxide anion radical scavenging activity using CYPMPO spin trap by ESR spin-trapping method.
The nature of series [9]: Antioxidant activity assessed as hydroxyl radical scavenging activity by measuring relative rate constant (kAOx/kST ratio) using DMPO spin trap by ESR spin-trapping method.
A short description of series [10]: Antioxidant activity assessed as rate constant for alkoxyl radical scavenging activity using DMPO spin trap by ESR spin-trapping method.
The nature of series [11]: Antioxidant activity assessed as rate constant for methyl radical scavenging activity using DMPO spin trap by ESR spin-trapping method.

As for `N[C@@H](Cc1ccc(O)c(O)c1)C(=O)O` [LEVODOPA], the Ratio is given as 27.4 in [1]; 215 in series [2]; 4308 in series [3]; 19.3 in series [4]; 1.85 in series [7]; 0.91 in series [9]. In addition, the K in series [5] worked out at 1.93 ×10⁷ /M/s; in [6] it was 2.55 ×10⁹ /M/s; in series [8], 2.07 ×10⁵ /M/s; in series [10], 3.48 ×10⁴ /M/s; in series [11] it was 2.59 ×10⁷ /M/s.

For `NC(Cc1ccc(O)c(O)c1)C(=O)O` (racemic), the Ratio in series [1] stood at 28.1; in series [2] it was 84.4; in series [3] it was 687; in series [4], 32.5; in [7], 1.82; in series [9], 14.7. For the same compound, the K in series [5] was found to be 7.59 ×10⁶ /M/s; in [6], 4.11 ×10¹⁰ /M/s; in series [8], 3.3 ×10⁴ /M/s; in series [10] it was 3.57 ×10⁴ /M/s; in series [11], 2.55 ×10⁷ /M/s.
